Measured values reported in patent US9427409B2, “Composition and method for aiding sleep” (priority 2014, dated 2016).
Several values for one entry are separate records, joined by “and”; a condition that tells them apart may be missing. Identical values can stand only once.

Assay: In vitro pH-dependent release of each active agent from three-stage release capsules
Assay type: physicochemical
Conditions: individual capsules (Cap# 1-6)
Experimental: The capsules were designed to release the three drugs in a staged sequence controlled via pH-dependent coatings: uncoated diphenhydramine HCl for immediate release, coated zolpidem for release about 2 hours after administration, and coated lorazepam for release about 4 hours after administration.
Each capsule contained the following agents: (1) 50 mg of uncoated diphenhydramine HCl; (2) 5 mg of zolpidem tartrate in multiparticulate form coated with […]® L30 D-55, which dissolves at above pH 5.5 (with half-maximal drug release at pH 5.8 and maximal release at pH 6.3); and (3) 0.5 mg of lorazepam in multiparticulate form coated with […]® L/S 12.5 (1:1), which dissolves at above pH 6.5 (with half-maximal drug release at pH 7.2). The coatings were selected to achieve release of zolpidem tartrate with gastric emptying and release of lorazepam when the drug reaches the intestines.
Six capsules were individually tested in beakers for pH-dependent release of each active agent.

[1] = At 30 min in pH 2 (At time zero pH 2)
[2] = At 150 min in pH 6.4 (At 120 min changed to pH 6.4)
[3] = At 270 min in pH 7.2 (At 240 min changed to pH 7.2)

Row | Compound | % Release [1] | % Release (At 30 min in pH 2 (At time zero pH 2), listed as lorazepam) | % Release [2] | % Release (At 150 min in pH 6.4 (At 120 min changed to pH 6.4), listed as lorazepam) | % Release [3] | % Release (At 270 min in pH 7.2 (At 240 min changed to pH 7.2), listed as lorazepam) | % Release (At 30 min in pH 2 (At time zero pH 2), listed as diphenhydramine HCl)
1 | O=C1Nc2ccc(Cl)cc2C(c2ccccc2Cl)=NC1O (racemic) [Lora, (RS)-7-Chloro-5-(2-chlorophenyl)-3-hydroxy-1,3-dihydro-2H-1,4-benzodiazepin-2-one] | 0% | neither zolpidem tartrate nor lorazepam was released | 0% | but not lorazepam, was released | 81.3% and 77.2% and 80.1% and 83.2% and 70.2% and 72.1% | more than 70% | –
2 | CN(C)CCOC(c1ccccc1)c1ccccc1 [Diph, 2-(diphenylmethoxy)-N,N-dimethylethanamine] | 93.4% and 89.8% and 98.2% and 98.7% and 96.8% and 97.3% | – | 98.0% and 100% (3×) and 99.9% (2×) | – | 99.9% and 100% (2×) and 99.8% and 99.1% and 99.2% | – | more than 89%
